In patent US7405238B2, “Pharmacological inducement of the fed mode for enhanced drug administration to the stomach” (priority 1999, dated 2008):
“And” between values parts separate entries of the source, which are not always exact repeats. Equal values may be shown once. Peptide text beside a SMILES is read from it.

Assays:
[1] = tested on: dogs; conditions: administered in excess of 1 g; cited from earlier work
[2] = tested on: male beagles; assay: Retention time of BaSO4 swelling tablet in stomach, dogs, Example 1; assay type: in vivo, dog; conditions: 7.94 × 19.05 mm BaSO4 tablet, mean of four dogs
Experimental: (§1) Four dogs, all male beagles ranging in age from 10 months to 21 months and weighing from 6 kg to 10 kg each, were housed individually and each was fed a 1:1 (weight ratio) wet:dry mixture of food weighing 300 g once daily at 3:00 p.m. Water was provided ad libitum. The dogs were fasted for 6-8 hours overnight, preceded by the removal of feces and any uneaten food.
(§2) Test formulations were administered in various regimens. In some of the tests, the dogs were given an immediate release (IR) regimen in the form of a single gelatin capsule containing a test species in a selected amount. A simulated controlled release (SCR) regimen was used in other tests by administering a gelatin capsule containing a test species in a selected amount every half hour. A third regimen was a controlled release (CR) regimen, in which the test species was incorporated in a compressed tablet of POLYOX 303 and magnesium stearate. […] The barium tablets were visualized every thirty minutes by fluoroscopy until they left the stomach. The time of the last observation of the 800 mg tablet in the stomach was recorded as the retention time. The test group also included a negative control using a fasted dog with no test formulations administered, and a positive control using a dog that was fed a standard 50 g meal but no test formulations.
The test results in terms of the retention times in hours are shown in Table I, which lists the means of the results observed among the four dogs as well as the range among the dogs for each test.

[3] = tested on: female beagles; assay: Retention time of BaSO4 swelling tablet in stomach, dogs fasted 24 hours, Example 2; assay type: in vivo, dog; conditions: mean of five dogs fasted 24 hours
Experimental: as §1, §2
(§3) Further tests were performed on a second group of dogs, consisting of five female beagles one year in age and weighing 5-7 kg each. The test protocols were the same as those in Example 1 except that the dogs were fasted for 24 hours before each test, and the test results are listed in Table II below, which lists the mean of the results observed among the five dogs as well as the range among the dogs for each test.

[4] = tested on: female beagles; assay: Retention time of BaSO4 swelling tablet in stomach, dogs fasted 24 hours, Example 3; assay type: in vivo, dog; conditions: mean of five dogs fasted 24 hours
Experimental: as §2, §3
Further tests were performed on the second group of dogs, consisting of five female beagles one year in age and weighing 5-7 kg each. The test protocols were the same as those in Example 2, except that the controls were replaced by a negative control consisting of AVICEL (microcrystalline cellulose, FMC Corporation, Philadelphia, Pa., USA), administered as a simulated controlled release at 10 mg every half hour. The test results are listed in Table III below, which lists the mean of the results observed among the five dogs as well as the range among the dogs for each test.

For N[C@@H](Cc1c[nH]c2ccccc12)C(=O)O [tryptophan], the “effect on gastric emptying” value [1] is given as “slowed gastric emptying”.
With CN(C)C(=O)C(CCN1CCC(O)(c2ccc(Cl)cc2)CC1)(c1ccccc1)c1ccccc1 [Loperamide, 4-(p-chlorophenyl)-4-hydroxy-N,N-dimethyl-α,α-diphenyl-1-piperidinebutyramide, reference compound] the “Retention Time (h) Mean” value ([2]; 0.1 mg, IR) was 2.5 ± 1.3 h.
For glycine, the “effect on gastric emptying” value [1] is given as “slowed gastric emptying”.
For N=C(N)NCCC[C@H](N)C(=O)O [L-Arginine], the “Retention Time (h) Mean” value ([2]; 300 mg, CR (POLYOX 303 tablet)) is given as 3.6 ± 1.6 h, the “Retention Time (h) Mean” value ([2]; 400 mg, IR) is given as 1.6 ± 0.2 h and the “effect on gastric emptying” value [1] is given as “slowed gastric emptying”.
With CCCCCCCCCCCCCCCC[n+]1ccccc1.[Cl-] [Cetylpyridinium chloride, reference compound] the “Retention Time (h) Mean” value ([3]; 20 mg, IR) was 4.5 ± 2.6 h, the “Retention Time (h) Mean” value ([3]; 50 mg, IR) was 4.0 ± 1.3 h and the “Retention Time (h) Mean” value ([3]; 100 mg, IR) was 3.2 ± 0.9 h. The “Retention Time (h) Mean” value ([4]; 5 mg, IR) was 4.0 ± 2.8 h and the “Retention Time (h) Mean” value ([4]; 20 mg, IR) was 4.45 ± 2.6 h.
For NC(Cc1c[nH]c2ccccc12)C(=O)NC(Cc1c[nH]c2ccccc12)C(=O)O (stereo not drawn) [Trp-Trp], the “Retention Time (h) Mean” value ([2]; 200 mg, IR) was 3.1 ± 3.9 h and 2.1 ± 1.8 h, the “Retention Time (h) Mean” value ([2]; SCR, 20 mg every thirty minutes) was 2.8 ± 0.3 h and the “Retention Time (h) Mean” value ([3]; SCR, 5 mg every thirty minutes) was 4.6 ± 1.5 h. For the same compound, the “Retention Time (h) Mean” value ([3]; SCR, 10 mg every thirty minutes) was 2.4 ± 1.8 h, the “Retention Time (h) Mean” value ([3]; SCR, 40 mg every thirty minutes) was 3.4 ± 1.9 h and the “Retention Time (h) Mean” value ([4]; SCR, 0.5 mg every thirty minutes) was 4.6 ± 1.7 h. The “Retention Time (h) Mean” value ([4]; SCR, 2 mg every thirty minutes) was 4.2 ± 1.1 h.
With “β-Casomorphin: peptide released from β-casein; bovine sequence Tyr-Pro-Phe-Pro-Gly-Pro-Ile; species tested not stated (YPFPGPI; printed: Tyr-Pro-Phe-Pro-Gly-Pro-Ile)” the “Retention Time (h) Mean” value ([2]; 25 mg, IR) was 2.6 ± 1.1 h and the “Retention Time (h) Mean” value ([4]; 10 mg, IR) was 3.5 ± 2.1 h.
With CCCCC(CC)COC(=O)CC(C(=O)OCC(CC)CCCC)S(=O)(=O)O (stereo not drawn) [Na docusate, reference compound] the “Retention Time (h) Mean” value ([2]; 200 mg, IR) was 2.6 ± 1.4 h.
For OC[C@@H](O)[C@H](O)[C@@H](O)CO [Xylitol, CH2OH—(CHOH)3—CH2OH], the “Retention Time (h) Mean” value ([2]; 600 mg, IR) was 3.1 ± 1.5 h.
In the case of COC(=O)[C@H](Cc1ccccc1)NC(=O)[C@@H](N)CC(=O)O [Aspartame] (H-Asp-Phe-OMe), the “Retention Time (h) Mean” value ([4]; 200 mg, IR) is reported as 3.8 ± 2.3 h.
For O=C(O)CCCCC1CCSS1 (stereo not drawn) [α-Lipoic acid], the “Retention Time (h) Mean” value ([2]; 150 mg, IR) was 2.8 ± 1.6 h.
